Test results published in patent US4814340A, “1,4-diaryl alkane derivatives having insecticidal and acaricidal activity” (priority 1982, dated 1989).
Read-outs that look alike come from different tables or passages of the source.

Experiments:
[1] = system: common cutworm (third-instar larvae); test: Test 1 (Effect on Common Cutworm); type: in vivo; settings: Spodoptera litura
Experimental: (§1) Compounds (a) through (g) described below were tested as comparative compounds in the same manner as the compounds of the present invention. All the tests were doubly carried out. Namely, each result was expressed by an average value of two data.
The emulsifiable concentrate of the test compound, prepared according to the method described in Formulation Example 1, was diluted with water to a specified concentration. Sweet potato leaves were sufficiently immersed in the dilution. The sweet potato leaves were dried and placed in a plastic cup having a diameter of 10 cm, and 10 third-instar larvae of common cutworm were set free in each cup. 48 hours after, the numbers of killed and living larvae were counted and the mortality was calculated.

[2] = system: two-spotted spider mite (adults); test: Test 4 (Effect on Two-Spotted Spider Mite); type: in vivo; settings: Tetranychus urticae
Experimental: as §1
A kidney bean leaf disc (20 mm in diameter) perforated with a cork borer was placed on water-impregnated absorbent cotton, and thereon 20 adults of two-spotted spider mite were set free, and the resulting set was allowed to stand around the clock. The same dilution of the emulsifiable concentrate of a test compound having a concentration of 200 ppm as used in Test 1 and Test 2, was applied by an applicator having a diameter of 20 cm and a height of 60 cm in an amount of 3 ml. 24 hours after, the number of killed adults was counted.

[3] = system: green rice leafhopper (female adults); test: Test 2 (Effect on Green Rice Leafhopper); type: in vivo; settings: Nephotettix cincticeps, 48 hours, female adults, read-out: Mortality (%)
Experimental: as §1
Four or five seedlings of paddy rice with three leaves were bundled, and thereon the same dilution of the emulsifiable concentrate as used in Test 1 was sprayed in an amount of 3 ml. The bundle was dried and covered with a metal net cylinder, and 10 female adults of green rice leafhopper were set free in the cylinder. 48 hours after, the number of killed adults was counted.

[4] = system: German cockroach (female adults); test: Test 3 (Effect on German Cockroach); type: in vivo, Blatella germanica (German cockroach); settings: Blattella germanica
Experimental: as §1
One ml of an acetone solution of a test compound of a specified concentration was poured in a high Petri dish having a diameter of 9 cm and a height of 9 cm. The Petri dish was allowed to stand, and thereby the acetone was evaporated. The upper part of the inner wall of the Petri dish was treated with butter to prevent the adults of German cockroach from escaping from the Petri dish. 10 female adults of German cockroach were set free in each Petri dish. 48 hours after, the number of killed adults was counted.

[5] = system: yearling carps; test: Test 5 (Fish Toxicity); type: in vivo, carp
Experimental: as §1
A water tank having a width of 60 cm, a length of 30 cm and a height of 40 cm was filled with water, and 10 yearling carps having a body length of about 5 cm were set free in the tank and adapted to the environment in the tank. An acetone solution of a test compound was applied into water so as to become a concentration of 1 or 0.1 ppm in water by adding said acetone solution at a rate of one part by volume per 100 parts by volume of water. 48 hours after, the number of killed and living carps was counted and the effect of a test compound on carps was examined.

[6] = system: plants of Solanacede; test: phytotoxicity to plants of Solanacede
[7] = system: green rice leafhopper (female adults); test: Test 2 (Effect on Green Rice Leafhopper); type: in vivo; settings: 48 hours, marked * in Table 3
[8] = 20 ppm, 48 hours, third-instar larvae, read-out: Mortality (%)
[9] = 100 ppm, 48 hours, third-instar larvae, read-out: Mortality (%)
[10] = 200 ppm, 24 hours, adults, read-out: Mortality (%)
[11] = 1 mg/m^2, 48 hours, female adults, read-out: Mortality (%)
[12] = 5 mg/m^2, 48 hours, female adults, read-out: Mortality (%)

Row | Molecule | mortality at 20 ppm [1, 8] | mortality at 100 ppm [1, 9] | mortality at 200 ppm [2, 10] | mortality at 20 ppm [3] | mortality at 100 ppm [3] | mortality at 1 mg/m2 [4, 11] | mortality at 5 mg/m2 [4, 12] | other results
1 | CC(C)(C)c1ccc(C(C)(C)CCCc2ccc(F)c(Oc3ccccc3)c2)cc1 [Compound 44] | 40% | 90% | 85% | – | – | – | – | –
2 | CCOc1ccc(C(C)(C)CCCc2cccc(Oc3ccccc3)n2)cc1 [Compound 19] | 70% | 100% | 43% | – | – | – | – | –
3 | CC(C)(CCCc1ccc(F)c(Oc2ccc(F)cc2)c1)c1ccc(Cl)cc1 [Compound 53] | – | – | 100% | 100% | 100% | 80% | 100% | –
4 | OC(c1ccc(Cl)cc1)(c1ccc(Cl)cc1)C(Cl)(Cl)Cl [(e), Kelthane, reference compound] | – | – | – | – | – | – | – | mortality at 200 ppm ([2]; 24 h): 100%
5 | CC(C)C(C(=O)OC(C#N)c1cccc(Oc2ccccc2)c1)c1ccc(Cl)cc1 (centres unmarked) [(g), Fenvalerate, reference compound] | – | – | – | – | – | – | – | Mortality(%) 48 Hours After ([5]; 0.1 ppm in water): 100%; Mortality(%) 48 Hours After ([5]; 1 ppm in water): 100%; phytotoxicity to plants of Solanacede [6]: observed
6 | CC(C)(CCCc1ccc(F)c(Oc2ccccc2)c1)c1ccc(OC(F)(F)C(F)F)cc1 [Compound 66] | 100% | 100% | 100% | 100% | 100% | 65% | 100% | –
7 | CCOc1ccc(C(C)(C)CCCN2C(=O)C3=C(CCCC3)C2=O)cc1 [Compound 12, 1-(3,4,5,6-Tetrahydrophthalimido)-4-(4-ethoxyphenyl)-4-methylpentane] | – | – | – | – | – | – | – | Rate of Number of Adults KnockedDown ([7]; 20 ppm): 40%; Rate of Number of Adults KnockedDown ([7]; 100 ppm): 80%
8 | 1-(3-Benzoylphenyl)-4-(4-chlorophenyl)-4-methylpentane [Compound 11] | – | – | – | – | – | – | – | Rate of Number of Adults KnockedDown ([7]; 20 ppm): 60%; Rate of Number of Adults KnockedDown ([7]; 100 ppm): 90%
9 | CC(C)(CCC(C#N)c1cccc(Oc2ccccc2)c1)c1ccc(Cl)cc1 (centres unmarked) [Compound 54, 1-(3-Phenoxyphenyl)-1-cyano-4-(4-chlorophenyl)-4-methylpentane] | 45% | 90% | 100% | 50% | 90% | – | – | –
10 | CC(C)Oc1ccc(C(C)(C)CCCc2cccc(Oc3ccccc3)c2)cc1 [Compound 9, 1-(3-phenoxyphenyl)-4-(4-isopropoxyphenyl)-4-methylpentane] | 100% | 100% | 100% | 100% | 100% | – | – | –
11 | CCc1ccc(C(C)(C)CCCc2ccc(F)c(Oc3ccccc3)c2)cc1 [Compound 52] | 100% | 100% | 100% | 100% | 100% | 70% | 100% | –
12 | CCOC(=O)c1ccc(C(C)(C)CCCc2cccc(Oc3ccccc3)c2)cc1 [Compound 64] | 40% | 90% | 70% | – | – | – | – | –
13 | CC(C)(CCCc1cccc(Oc2ccccn2)c1)c1ccc(Cl)cc1 [Compound 43] | – | – | 60% | 75% | 100% | – | – | –
14 | CC(C)(CCCc1ccc(F)c(Oc2ccccc2)c1)c1ccc(Cl)cc1 [Compound 20] | 100% | 100% | 100% | 100% | 100% | 100% | 100% | Mortality(%) 48 Hours After ([5]; 0.1 ppm in water): 0%; Mortality(%) 48 Hours After ([5]; 1 ppm in water): 0%
15 | COP(=O)(OC)OC=C(Cl)Cl [(a), 0,0-dimethyl-0-(2,2-dichlorovinyl)phosphate, reference compound] | – | – | – | – | – | – | – | mortality at 20 ppm ([1]; 48 h): 0%; mortality at 100 ppm ([1]; 48 h): 60%; mortality at 200 ppm ([2]; 24 h): 33%
16 | COCc1ccc(C(C)(C)CCCc2cccc(Oc3ccccc3)c2)cc1 [Compound 61] | – | – | 93% | 100% | 100% | – | – | –
17 | CC(C)c1ccc(C(C)(C)CCCc2ccc(F)c(Oc3ccccc3)c2)cc1 [Compound 56] | – | – | 100% | 100% | 100% | 40% | 100% | –
18 | CC(C)(CCCc1cccc(Oc2ccccc2)c1)c1ccc(OCCF)cc1 [Compound 60] | 90% | 100% | 90% | 100% | 100% | – | – | –
19 | CC(C)(CCCc1cccc(Oc2ccccc2)c1)c1ccc(OC(F)(F)CCl)cc1 [Compound 35] | 100% | 100% | 85% | – | – | – | – | Mortality(%) 48 Hours After ([5]; 0.1 ppm in water): 0%; Mortality(%) 48 Hours After ([5]; 1 ppm in water): 0%; mortality at 1 mg/m2 ([4]; 48 h): 70%; mortality at 5 mg/m2 ([4]; 48 h): 100%
20 | CCOc1ccc(C(C)(C)CCCc2cccc(Oc3ccccc3)c2)cc1 [Compound 24] | 100% | 100% | 95% | 100% | 100% | 100% | 100% | Mortality(%) 48 Hours After ([5]; 0.1 ppm in water): 0%; Mortality(%) 48 Hours After ([5]; 1 ppm in water): 0%
21 | CC(C)(CCCc1ccc(F)c(Oc2ccccc2)c1)c1ccc(OC(F)F)cc1 [Compound 10, 1-(3-phenoxy-4-fluorophenyl)-4-(4-difluoromethoxyphenyl)-4-methylpentane] | 100% | 100% | – | 100% | 100% | 100% | 100% | Mortality(%) 48 Hours After ([5]; 0.1 ppm in water): 5%; Mortality(%) 48 Hours After ([5]; 1 ppm in water): 30%
22 | CCOc1ccc(C(C)(C)CCCc2cccc(Oc3ccc(F)cc3)n2)cc1 [Compound 40] | – | – | 70% | 60% | 100% | – | – | –
23 | CCOc1ccc(C(C)(C)CCCc2ccc(F)c(Oc3ccccc3)c2)cc1Cl [Compound 57] | 100% | 100% | 91% | 100% | 100% | 100% | 100% | Mortality(%) 48 Hours After ([5]; 0.1 ppm in water): 0%; Mortality(%) 48 Hours After ([5]; 1 ppm in water): 0%
